Reference: US11458188B2, “ABC transporter peptide inhibitor XH-14C and application thereof” (HUNAN UNIVERSITY OF SCIENCE AND ENGINEERING, priority 2020, dated 2022)
Where two headings read alike, the source gives them in different places.

Assays:
[1] = test system: parental cancer cell line KB-3-1; assay: MDR reversal study (MTT), parental cancer cell line; type: cell-based; conditions: for IC50: read-out: IC50, chemotherapeutic alone
Description: (§1) The cytotoxicity of the peptide in different cell lines was measured by modified MTT assay. 5,000 cells per well were seeded in a 96-well microplate and cultured overnight. Peptides and positive control were added in a designated concentration gradient. The plate was incubated for 68 h, and then added with 20 μL of MTT solution (4 mg/mL) per well and incubated for another 4 h. The medium was pipetted, to which 100 μL of DMSO was added to dissolve the formaldehyde crystals. The absorbance was measured at 570 nm with a UV/Vis microplate spectrophotometer.

[2] = test system: transfected empty vector cell line HEK293/pcDNA3.1; assay: MDR reversal study (MTT), transfected empty vector cell line; type: cell-based; conditions: for IC50: read-out: IC50, chemotherapeutic alone
Description: as §1

[3] = test system: transfected ABCB1-overexpressing cell line HEK293/ABCB1; assay: MDR reversal study (MTT), transfected ABCB1-overexpressing cell line; conditions: Table 4, IC50 divided by IC50 in HEK293/pcDNA3.1
Description: as §1

[4] = test system: drug-induced ABCB1-overexpressing cancer cell line KB-C2; assay: MDR reversal study (MTT), drug-induced ABCB1-overexpressing cell line; conditions: Table 3, IC50 divided by IC50 in KB-3-1
Description: as §1

[5] = test system: transfected ABCC1-overexpressing cell line HEK293/ABCC1; assay: MDR reversal study (MTT), transfected ABCC1-overexpressing cell line; type: cell-based; conditions: for IC50: Table 6, no reversal agent, read-out: IC50, chemotherapeutic alone
[6] = test system: drug-induced ABCC1-overexpressing cancer cell line KB-CV60; assay: MDR reversal study (MTT), drug-induced ABCC1-overexpressing cell line; type: cell-based; conditions: for IC50: Table 5, no reversal agent, read-out: IC50, chemotherapeutic alone
parental cells (KB-3-1) = assay: Modified MTT cytotoxicity assay, parental cells; conditions: Homo sapiens, KB 3-1, 72 h, read-out: IC50 (cytotoxicity), KB-3-1
[7] = test system: ABCB1-overexpressing cancer cells (KB-C2); assay: Modified MTT cytotoxicity assay, ABCB1-overexpressing cells; conditions: Homo sapiens, KB-C2, 72 h, read-out: IC50 (cytotoxicity), KB-C2
Description: as §1

[8] = test system: ABCC1-overexpressing cancer cells (KB-CV60); assay: Modified MTT cytotoxicity assay, ABCC1-overexpressing cells; conditions: KB-CV60, 72 h, read-out: IC50 (cytotoxicity), KB-CV60

Which results are given for `COc1cccc2c1C(=O)c1c(O)c3c(c(O)c1C2=O)C[C@@](O)(C(=O)CO)C[C@@H]3O[C@H]1C[C@H](N)[C@H](O)[C@H](C)O1` [Adriamycin]?
RF (resistant fold), chemotherapeutic alone ([1]; Table 3, no reversal agent): 1.00; RF (resistance fold), chemotherapeutic alone ([2]; Table 4, no reversal agent): 1.00; RF (resistance fold), chemotherapeutic alone [3]: 25.29; RF (resistant fold), chemotherapeutic alone [4]: 58.84

Which IC50 [5] does the source give for `N.N.[Cl][Pt][Cl]` [Cisplatin] here?
Its IC50 is 2240 nM.

And the IC50 [6]?
The IC50 was 2230 nM.

What about the IC50 ([1]; Table 3, no reversal agent) of the same molecule?
Its IC50 is 1790 nM.

And the IC50 ([1]; Table 5, no reversal agent)?
The IC50 was 1790 nM.

And the IC50 ([2]; Table 4, no reversal agent)?
The IC50 was 2210 nM.

What about the IC50 ([2]; Table 6, no reversal agent) of the same molecule?
The IC50 was 2210 nM.

What does the source list for `CN(C)C(=O)CCSC(SCCC(=O)O)c1cccc(/C=C/c2ccc3ccc(Cl)cc3n2)c1` (centres unmarked) [MK571]?
RF of Cisplatin + MK571 ([2]; Table 6, MK571 5 μM): 0.99; RF of Vincristine + MK571 ([2]; Table 6, MK571 5 μM): 1.02

For `CC(=O)O[C@H]1C(=O)[C@@]2(C)[C@H]([C@H](OC(=O)c3ccccc3)[C@]3(O)C[C@H](OC(=O)[C@H](O)[C@@H](NC(=O)c4ccccc4)c4ccccc4)C(C)=C1C3(C)C)[C@]1(OC(C)=O)CO[C@@H]1C[C@@H]2O` [Paclitaxel], which IC50 (parental cells (KB-3-1)) is on record?
The IC50 was 30 nM.

And the “RF (resistant fold), chemotherapeutic alone” value ([1]; Table 3, no reversal agent)?
The value was 1.00.

And the IC50 [7]?
The IC50 was 1770 nM.

For `CC[C@]1(O)C[C@H]2CN(CCc3c([nH]c4ccccc34)[C@@](C(=O)OC)(c3cc4c(cc3OC)N(C=O)[C@H]3[C@@](O)(C(=O)OC)[C@H](OC(C)=O)[C@]5(CC)C=CCN6CC[C@]43[C@@H]65)C2)C1` [Vincristine], which IC50 (parental cells (KB-3-1)) is on record?
The IC50 was 95 nM.

And the “RF (resistance fold), chemotherapeutic alone” value (“RF (resistance fold)” for short) ([5]; Table 6, IC50 divided by IC50 in HEK293/pcDNA3.1)?
Its value is 19.79.

What about the IC50 [5] of the same molecule?
Its IC50 is 2710 nM.

What about the “RF (resistance fold)” value ([6]; Table 5, IC50 divided by IC50 in KB-3-1) of the same molecule?
Its value is 169.05.

What about the IC50 [6] of the same molecule?
Its IC50 is 16100 nM.

And the “RF (resistance fold)” value ([1]; Table 5, no reversal agent)?
Its value is 1.00.

What about the IC50 [8] of the same molecule?
Its IC50 is 16100 nM.

And the “RF (resistance fold)” value ([2]; Table 6, no reversal agent)?
Its value is 1.00.
